{"source": "patent US20220193200A1", "about": "“TANNIC ACID/FE (III) NANOPARTICLES AND METHODS OF DRUG DELIVERY” (The Johns Hopkins University, priority 2019, published 2022)", "origin": "cited, not measured here", "data": [{"smiles": "O=C(OC[C@H]1O[C@@H](OC(=O)c2cc(O)c(O)c(OC(=O)c3cc(O)c(O)c(O)c3)c2)[C@H](OC(=O)c2cc(O)c(O)c(OC(=O)c3cc(O)c(O)c(O)c3)c2)[C@@H](OC(=O)c2cc(O)c(O)c(OC(=O)c3cc(O)c(O)c(O)c3)c2)[C@@H]1OC(=O)c1cc(O)c(O)c(OC(=O)c2cc(O)c(O)c(O)c2)c1)c1cc(O)c(O)c(OC(=O)c2cc(O)c(O)c(O)c2)c1", "note": "[tannic acid, Tannic acid]", "values": [{"measurement": "pKa", "result": "around 6"}]}]}
